System: susceptible isolate of H. contortus, exsheathed L3 larvae
Assay: Larval motility assay (LMA), Worminator
Format: cell-based, Haemonchus contortus
Conditions: for anthelmintic activity in LMA: first round, up to 125 μM, any time point
Description: The H. contortus isolates used were TxPh-2011-S (Texas A&M University, USA) and UGA MDR 2020 (University of Georgia Athens, USA). TxPh-2011-S (Texas A&M University, USA) was originally isolated from Pronghorn antelope in West Texas in 2011 and is fully drug susceptible, phenotypically determined by the DrenchRite larval development assay (LDA; Microbial Screening Technologies, Kemps Creek, Australia). To establish this as a laboratory isolate, it was initially passaged in goats at Texas A&M University and then at The University of Georgia using both goats and sheep, and it is currently maintained in lambs at Louisiana State University. A nemabiome assay ([69]) was conducted at the University of Calgary to confirm that the isolate is 100% H. contortus. The UGA MDR 2020 (University of Georgia Athens, USA) isolate is resistant to ivermectin, benzimidazoles, levamisole, and moxidectin, as determined by the DrenchRite LDA. To establish this as a laboratory isolate, feces collected from a sheep farm in Georgia with known history of multiple anthelmintic resistance were cultured. Two donor goats were infected with the larvae recovered, which were morphologically ([70]) identified as 89% H. contortus. A fecal egg count reduction test (FECRT) was then performed in the infected goats. First, a combination treatment with albendazole at 15 mg/kg and ivermectin at 0.4 mg/kg was performed, followed by a treatment with levamisole at 12 mg/kg. Later, and to confirm resistance to moxidectin, another treatment was administered using a dose of 0.4 mg/kg of moxidectin. Posttreatment feces were recovered, coprocultures were established, and L3 larvae were identified as 100% H. contortus. Resistance to all drugs was subsequently confirmed using a DrenchRite assay.
For LMAs, the first phase testing using compounds NSC133100 and NSC177383 was done using the Worminator system in parallel with the LDA. Initial stock solutions of 12.5 mM were prepared for each compound using 100% DMSO as a solvent. Initial stock solutions (25 μL) were then diluted in 475 μL of culture media to yield working stock solutions of 625.00, 156.30, 39.10, 9.80, 2.40, 0.60, 0.20, 0.04, and 0.00 μM in 5% DMSO for each drug. In plate, 200 μL of working stock solutions were then diluted in 800 μL of culture media, yielding concentrations of 125.00, 31.25, 7.81, 1.95, 0.49, 0.12, and 0.00 μM in 1% DMSO. For the second phase of testing, compounds showing anthelmintic activity with the LDA were tested in a second round at higher concentrations than in the first phase of testing. Initial stocks of 50 mM were prepared for compounds NSC133100, NSC177383, NSC145612, and NSC56410 using 100% DMSO as a solvent. Initial stock solutions (25-μL portions) were then diluted in 475 μL of culture media consisting of 65% Lauria-Bertani (LB) (Thermo Fisher Scientific, Branchburg, NJ), 25% NCTC (Sigma-Aldrich), 10% fetal bovine serum (Atlanta Biologicals, Flowery Branch, GA), Pen/Strep (Sigma-Aldrich) at a final concentration of […], and amphotericin B (Sigma-Aldrich) at a final concentration of […]. The working stock solutions yielded concentrations of 2,500.00, 625.00, 156.30, 39.10, 9.80, 2.40, and 0.00 μM in 5% DMSO for each compound. In each well in the plate, 200 μL of working stock solutions were then diluted in 800 μL of culture media, yielding final concentrations of 500.00, 125.00, 31.30, 7.81, 1.95, 0.49, and 0.00 μM in 1% DMSO.
For the motility assays, 24-well plates with inserts were used (Costar, catalog no. 3379; Corning, Inc., Corning, NY). Portions (640 μL) of culture media were added to each well, and approximately 50 exsheathed larvae contained in 160 μL of culture media in each insert. Once pretreatment readings were taken, 160 μL of the drug solution was added to the well, and another 40 μL was added to the insert, reaching the final concentrations described in the protocol above. All concentrations were tested in triplicate. […]

SMILES: CO[C@H]1/C=C/O[C@@]2(C)Oc3c(C)c(O)c4c(O)c(cc(O)c4c3C2=O)NC(=O)/C(C)=C\C=C\[C@H](C)[C@H](O)[C@@H](C)[C@@H](O)[C@@H](C)[C@H](OC(C)=O)[C@@H]1C [NSC133100]
- Percent inhibition of larval motility (0.12 µM, 1 hour): -7.4%
- Percent inhibition of larval motility (0.12 µM, 4 hours): 14.9%
- Percent inhibition of larval motility (0.12 µM, 24 hours): 22.9%
- Percent inhibition of larval motility (0.12 µM, 48 hours): 8.7%
- Percent inhibition of larval motility (0.12 µM, 72 hours): 26.1%
- Percent inhibition of larval motility (0.12 µM, 96 hours): 7.4%
- Percent inhibition of larval motility (0.12 µM, Initial): -93.9%
- Percent inhibition of larval motility (0.49 µM, 1 hour): -29.1%
- Percent inhibition of larval motility (0.49 µM, 4 hours): 4.3%
- Percent inhibition of larval motility (0.49 µM, 24 hours): 8.0%
- Percent inhibition of larval motility (0.49 µM, 48 hours): -9.5%
- Percent inhibition of larval motility (0.49 µM, 72 hours): -14.9%
- Percent inhibition of larval motility (0.49 µM, 96 hours): -9.0%
- Percent inhibition of larval motility (0.49 µM, Initial): -118.5%
- Percent inhibition of larval motility (1.95 µM, 1 hour): -57.6%
- Percent inhibition of larval motility (1.95 µM, 4 hours): -16.4%
- Percent inhibition of larval motility (1.95 µM, 24 hours): -8.4%
- Percent inhibition of larval motility (1.95 µM, 48 hours): -37.5%
- Percent inhibition of larval motility (1.95 µM, 72 hours): -49.0%
- Percent inhibition of larval motility (1.95 µM, 96 hours): -50.7%
- Percent inhibition of larval motility (1.95 µM, Initial): -159.9%
- Percent inhibition of larval motility (7.81 µM, 1 hour): 27.5%
- Percent inhibition of larval motility (7.81 µM, 4 hours): 9.1%
- Percent inhibition of larval motility (7.81 µM, 24 hours): 25.3%
- Percent inhibition of larval motility (7.81 µM, 48 hours): 35.3%
- Percent inhibition of larval motility (7.81 µM, 72 hours): 32.1%
- Percent inhibition of larval motility (7.81 µM, 96 hours): 38.0%
- Percent inhibition of larval motility (7.81 µM, Initial): -74.0%
- Percent inhibition of larval motility (31.25 µM, 1 hour): 10.6%
- Percent inhibition of larval motility (31.25 µM, 4 hours): 7.1%
- Percent inhibition of larval motility (31.25 µM, 24 hours): 9.0%
- Percent inhibition of larval motility (31.25 µM, 48 hours): 35.2%
- Percent inhibition of larval motility (31.25 µM, 72 hours): 19.9%
- Percent inhibition of larval motility (31.25 µM, 96 hours): 28.7%
- Percent inhibition of larval motility (31.25 µM, Initial): -64.8%
- Percent inhibition of larval motility (125 µM, 1 hour): 4.3%
- Percent inhibition of larval motility (125 µM, 4 hours): -12.0%
- Percent inhibition of larval motility (125 µM, 24 hours): 3.2%
- Percent inhibition of larval motility (125 µM, 48 hours): 23.2%
- Percent inhibition of larval motility (125 µM, 72 hours): 3.1%
- Percent inhibition of larval motility (125 µM, 96 hours): 19.2%
- Percent inhibition of larval motility (125 µM, Initial): -8.9%
- anthelmintic activity in LMA: no anthelmintic activity

SMILES: CO[C@@H]1/C=C/O[C@@]2(C)Oc3c(C)c(O)c4c(c3C2=O)C(=N[C@@H]2CC[C@@H](O)O[C@H]2C)C=C(NC(=O)/C(C)=C\C(=O)[C@@H]2C[C@@H]2[C@H](O)[C@@H](C)[C@@H](O)[C@@H](C)[C@H](OC(C)=O)[C@@H]1C)C4=O [NSC177383]
- Percent inhibition of larval motility (0.12 µM, 1 hour): 29.41%
- Percent inhibition of larval motility (0.12 µM, 4 hours): 4.95%
- Percent inhibition of larval motility (0.12 µM, 24 hours): 28.20%
- Percent inhibition of larval motility (0.12 µM, 48 hours): 2.41%
- Percent inhibition of larval motility (0.12 µM, 72 hours): 4.89%
- Percent inhibition of larval motility (0.12 µM, 96 hours): -16.32%
- Percent inhibition of larval motility (0.12 µM, Initial): -1.62%
- Percent inhibition of larval motility (0.49 µM, 1 hour): 25.94%
- Percent inhibition of larval motility (0.49 µM, 4 hours): 18.27%
- Percent inhibition of larval motility (0.49 µM, 24 hours): 23.09%
- Percent inhibition of larval motility (0.49 µM, 48 hours): 12.98%
- Percent inhibition of larval motility (0.49 µM, 72 hours): -5.94%
- Percent inhibition of larval motility (0.49 µM, 96 hours): -72.91%
- Percent inhibition of larval motility (0.49 µM, Initial): -11.69%
- Percent inhibition of larval motility (1.95 µM, 1 hour): 30.56%
- Percent inhibition of larval motility (1.95 µM, 4 hours): 33.37%
- Percent inhibition of larval motility (1.95 µM, 24 hours): 18.80%
- Percent inhibition of larval motility (1.95 µM, 48 hours): 14.16%
- Percent inhibition of larval motility (1.95 µM, 72 hours): -3.70%
- Percent inhibition of larval motility (1.95 µM, 96 hours): -23.78%
- Percent inhibition of larval motility (1.95 µM, Initial): 21.82%
- Percent inhibition of larval motility (7.81 µM, 1 hour): 26.94%
- Percent inhibition of larval motility (7.81 µM, 4 hours): 26.72%
- Percent inhibition of larval motility (7.81 µM, 24 hours): 22.63%
- Percent inhibition of larval motility (7.81 µM, 48 hours): 34.44%
- Percent inhibition of larval motility (7.81 µM, 72 hours): 14.00%
- Percent inhibition of larval motility (7.81 µM, 96 hours): -53.76%
- Percent inhibition of larval motility (7.81 µM, Initial): 22.03%
- Percent inhibition of larval motility (31.25 µM, 1 hour): 14.47%
- Percent inhibition of larval motility (31.25 µM, 4 hours): 38.95%
- Percent inhibition of larval motility (31.25 µM, 24 hours): 18.83%
- Percent inhibition of larval motility (31.25 µM, 48 hours): 26.89%
- Percent inhibition of larval motility (31.25 µM, 72 hours): 16.58%
- Percent inhibition of larval motility (31.25 µM, 96 hours): -23.43%
- Percent inhibition of larval motility (31.25 µM, Initial): 28.34%
- Percent inhibition of larval motility (125 µM, 1 hour): 42.55%
- Percent inhibition of larval motility (125 µM, 4 hours): 10.81%
- Percent inhibition of larval motility (125 µM, 24 hours): 16.94%
- Percent inhibition of larval motility (125 µM, 48 hours): 42.97%
- Percent inhibition of larval motility (125 µM, 72 hours): 27.79%
- Percent inhibition of larval motility (125 µM, 96 hours): 41.45%
- Percent inhibition of larval motility (125 µM, Initial): 22.02%
- anthelmintic activity in LMA: no anthelmintic activity

Source: PMC10269165 (Antimicrobial Agents and Chemotherapy, 2023)
